Experimental data from patent US20060018921A1, “Histone deacetylase inhibitors and cognitive applications” (priority 2004, published 2006).
“Also recorded” adds a separate entry of the source. Starred links: 1 amine or outer side, 2 acyl side, 3 side chain; linkers in the order of their positions; H or OH if unused. Positions of bridges follow the written chain, without caps; N, C: chain ends. Non-standard residues stand in square brackets, D forms with d. Residues, ends and D or L forms follow the SMILES beside them. Chains are numbered I, II in the order given. Actinocin(9to1) = Cc1c2oc3c(C)ccc(C(=O)[*:1])c3nc-2c(C(=O)[*:2])c(N)c1=O; NMeV = CN[C@H](C(=O)O)C(C)C; Sar = CNCC(=O)O

Columns and labels:
ERK2 = experiment: P-ERK2 western blot, acute hippocampal slices, area CA1; conditions: for levels of P-ERK2: slices treated 1 h, FSK 50 μM with 100 μM Ro20-1724, U0126 20 μM, 4αP 3 μM, dFSK 50 μM with 100 μM Ro20-1724, TSA; for levels of P-ERK2 / effect of PDA on P-ERK2 after pretreatment with MEK inhibitor: PDA 3 μM; for levels of P-ERK2 / effect of NMDA on P-ERK2 after pretreatment with MEK inhibitor / effect of FSK on P-ERK2 after pretreatment with MEK inhibitor / effect of PDA on P-ERK2 after pretreatment with MEK inhibitor: PD98059 50 μM; for effect of NMDA on P-ERK2 after pretreatment with MEK inhibitor / effect of FSK on P-ERK2 after pretreatment with MEK inhibitor / effect of PDA on P-ERK2 after pretreatment with MEK inhibitor: U0126 20 μM; for effect of NMDA on P-ERK2 after pretreatment with MEK inhibitor: 100 μM NMDA 10 min; for effect of FSK on P-ERK2 after pretreatment with MEK inhibitor: FSK 50 μM with 100 μM Ro20-1724
ERK1 = experiment: P-ERK1 western blot, acute hippocampal slices, area CA1; conditions: slices treated 1 h; data not shown
histone H3 (Lys14) = experiment: Acetylation of histone H3, acute hippocampal slices, area CA1; conditions: for histone H3 acetylation: slices treated 1 h, FSK 50 μM with 100 μM Ro20-1724, 4αP 3 μM, dFSK 50 μM with 100 μM Ro20-1724, U0126 20 μM, TSA 1.65 μM; for histone H3 acetylation / effect of PDA on histone H3 acetylation after pretreatment with MEK inhibitor: PDA 3 μM; for histone H3 acetylation / effect of NMDA on acetylation of histone H3 after pretreatment with MEK inhibitor / effect of FSK on histone H3 acetylation after pretreatment with MEK inhibitor / effect of PDA on histone H3 acetylation after pretreatment with MEK inhibitor: PD98059 50 μM; for effect of NMDA on acetylation of histone H3 after pretreatment with MEK inhibitor / effect of FSK on histone H3 acetylation after pretreatment with MEK inhibitor / effect of PDA on histone H3 acetylation after pretreatment with MEK inhibitor: U0126 20 μM; for effect of NMDA on acetylation of histone H3 after pretreatment with MEK inhibitor: 100 μM NMDA 10 min; for effect of FSK on histone H3 acetylation after pretreatment with MEK inhibitor: FSK 50 μM with 100 μM Ro20-1724
[1] = system: Schaffer-collateral synapses; conditions: previous studies, Nguyen et al., 1994; cited from earlier work
[2] = system: histone H4 (Lys5/Lys8/Lys12/Lys16); experiment: Acetylation of histone H4, acute hippocampal slices, area CA1; conditions: 100 μM NMDA 10 min, with or without U0126 or PD98059 pretreatment
[3] = 100 μM NMDA in Mg++-free ACSF for 10 min

CCCCCCCCCC(=O)O[C@@H]1[C@@H](C)[C@@]2(O)[C@@H](C=C(CO)C[C@@]3(O)C(=O)C(C)=C[C@@H]23)[C@@H]2C(C)(C)[C@]12OC(=O)CCCCCCCCC [4αP, 4-α-phorbol 12,13-didecanoate]
levels of P-ERK2 (ERK2): no effect on P-ERK2
levels of P-ERK2 (ERK2; listed as 4 αP): no affect
levels of P-ERK1 (ERK1): no affect
histone H3 acetylation (histone H3 (Lys14)): no effect on H3 acetylation
histone H3 acetylation (histone H3 (Lys14); listed as 4 αP): no affect on the acetylation of histone H3

OC[C@H]1O[C@@H](n2cnc3cc(Cl)c(Cl)cc32)[C@H](O)[C@@H]1O [DRB, 5,6-dichlorobenzimidazole riboside]
basal synaptic transmission [1]: no effect on basal synaptic transmission

CN[C@H](CC(=O)O)C(=O)O [NMDA]
phosphorylation of ERK2 in area CA1 (ERK2; [3]): induced significant increases in P-ERK2; also recorded: significantly increased
acetylation of histone H3 in area CA1 (histone H3 (Lys14); [3]): increased acetylation of histone H3; also recorded: significantly increased
acetylation of histone H4 in area CA1 [2]: no affect on acetylation of histone H4

COc1cccc(-c2cc(=O)c3ccccc3o2)c1N [PD98059]
effect of NMDA on P-ERK2 after pretreatment with MEK inhibitor (ERK2): blocked; also recorded: inhibited the affect of NMDA on P-ERK2
effect of FSK on P-ERK2 after pretreatment with MEK inhibitor (ERK2): blocked
effect of PDA on P-ERK2 after pretreatment with MEK inhibitor (ERK2): blocked
levels of P-ERK2 (ERK2): diminished
effect of NMDA on acetylation of histone H3 after pretreatment with MEK inhibitor (histone H3 (Lys14)): blocked; also recorded: inhibited the affect of NMDA on acetylation of histone H3
effect of FSK on histone H3 acetylation after pretreatment with MEK inhibitor (histone H3 (Lys14)): blocked; also recorded: inhibited
effect of PDA on histone H3 acetylation after pretreatment with MEK inhibitor (histone H3 (Lys14)): blocked; also recorded: inhibited
histone H3 acetylation (histone H3 (Lys14)): no effect on basal levels of acetylation of histone H3

CC(=O)O[C@@H]1[C@@H](C)[C@@]2(O)[C@@H](C=C(CO)C[C@]3(O)C(=O)C(C)=C[C@@H]23)[C@@H]2C(C)(C)[C@]12OC(C)=O [PDA, phorbol 12,13-diacetate]
levels of P-ERK2 (ERK2): significantly increased; also recorded: significant increases in levels of P-ERK2
levels of P-ERK1 (ERK1): significantly increased
histone H3 acetylation (histone H3 (Lys14)): significantly increased acetylation of histone H3

N#CC(=C(/N)Sc1ccccc1N)/C(C#N)=C(\N)Sc1ccccc1N [U0126]
effect of NMDA on P-ERK2 after pretreatment with MEK inhibitor (ERK2): blocked; also recorded: inhibited the affect of NMDA on P-ERK2
effect of FSK on P-ERK2 after pretreatment with MEK inhibitor (ERK2): blocked
effect of PDA on P-ERK2 after pretreatment with MEK inhibitor (ERK2): blocked
levels of P-ERK2 (ERK2): diminished
effect of NMDA on acetylation of histone H3 after pretreatment with MEK inhibitor (histone H3 (Lys14)): blocked; also recorded: inhibited the affect of NMDA on acetylation of histone H3
effect of FSK on histone H3 acetylation after pretreatment with MEK inhibitor (histone H3 (Lys14)): blocked; also recorded: inhibited
effect of PDA on histone H3 acetylation after pretreatment with MEK inhibitor (histone H3 (Lys14)): blocked; also recorded: inhibited
histone H3 acetylation (histone H3 (Lys14)): no effect on basal levels of acetylation of histone H3

Cc1c2oc3c(C)ccc(C(=O)N[C@@H]4C(=O)N[C@H](C(C)C)C(=O)N5CCC[C@H]5C(=O)N(C)CC(=O)N(C)[C@@H](C(C)C)C(=O)O[C@@H]4C)c3nc-2c(C(=O)N[C@@H]2C(=O)N[C@H](C(C)C)C(=O)N3CCC[C@H]3C(=O)N(C)CC(=O)N(C)[C@@H](C(C)C)C(=O)O[C@@H]2C)c(N)c1=O [actinomycin D, Actinomycin D] (I: T[dV]P[Sar][NMeV] / II: T[dV]P[Sar][NMeV]; ester I:1-I:C, II:1-II:C; linker I:N-II:N via Actinocin(9to1))
basal synaptic transmission [1]: no effect on synaptic transmission

C=C[C@@]1(C)CC(=O)[C@@H]2[C@@]3(C)CCCC(C)(C)[C@@H]3[C@H](O)[C@H](OC(C)=O)[C@@]2(C)O1 [dFSK, 1,9 dideoxyforskolin]
levels of P-ERK2 (ERK2): no affect; also recorded: no effect on P-ERK2
levels of P-ERK1 (ERK1): no affect
histone H3 acetylation (histone H3 (Lys14)): no affect on the acetylation of histone H3; also recorded: no effect on H3 acetylation
